Columns and labels:
[1] = target: MBP; details: read-out: Kd reported in previous studies; cited from earlier work
[2] = target: T1, h-CA I (Homo sapiens, UniProt P00915); assay: Esterase activity assay (4-nitrophenyl acetate), h-CA I; format: biochemical; design: purchased Sigma C4396; details: h-CA I 2 µM; 57 °C; noncompetitive inhibition fit; read-out: Ki (µM), from enzyme assay
Method: Carbonic anhydrase activity (h-CA I and b-CA II) was measured using a spectrophotometer (Molecular Devices, SpectraMax® i3x) as described elsewhere[73]. h-CA I was used at a final concentration of 2 µM and b-CA II was used at a final concentration of 0.5 µM in the buffer: 100 mM NaCl, 20 mM TRIS, pH 6.1, 1% DMSO. […] All reactions of h-CA I took place at 57 °C and reactions of b-CA II took place at 60 °C. […] Enzyme initial velocity was plotted with different substrate concentration using Prism6. Data were collected for each of the four inhibitors, and the change in initial velocities were analyzed with the “Enzyme-noncompetitive inhibition” equation in Prism6.

[3] = target: T1, h-CA I; assay: SYPRO Orange DSF, isothermal analysis, carbonic anhydrase h-CA I
Method: All proteins (MBP, h-CA I and b-CA II) were used at a final concentration of 2 µM for this assay. SYPRO Orange (Invitrogen S6651) was used at a final concentration of 20X for MBP, and at 10X for the carbonic anhydrases. […] Carbonic anhydrase experiments were carried out in 100 mM NaCl, 20 mM TRIS, 1% DMSO, pH 6.1.
All DSF experiments were carried out with Eppendorf Realplex2 Mastercycler. Each sample was divided to three 50 µL replicates. Sample solutions were dispensed into 96-well optical reaction plate (Thermo Fisher Scientific 4306737) and the plate was sealed with optical PCR plate sheet (Thermo Fisher Scientific AB-1170). Fluorescence intensity was measured via the JOE emission filter (550 nm) and “PTS clear plate” was set as the background for the calibration. […] Melting curves were directly exported from the instrument, and then were analyzed with Prism 6 (GraphPad Software Inc.).
DSF data were analyzed in three steps. First, raw fluorescence data as a function of temperature were fit to a modified form of the thermodynamic equation, as follows:22 ΔG=ΔH(1−T/Tm)−ΔCp(Tm−T+Tln[T/Tm]) 23 KU=e^−ΔG/RT 24 Y(T)=[1/1+KU(mFT+bF)]+[KU/1+KU(mUT+bU)]
Here Equation 24 relates the observed fluorescence signal, Y, as a function of temperature (T). The two terms in this equation correspond to contributions from folded and unfolded protein, respectively. […]

T1 sequence (P00915 whole entry): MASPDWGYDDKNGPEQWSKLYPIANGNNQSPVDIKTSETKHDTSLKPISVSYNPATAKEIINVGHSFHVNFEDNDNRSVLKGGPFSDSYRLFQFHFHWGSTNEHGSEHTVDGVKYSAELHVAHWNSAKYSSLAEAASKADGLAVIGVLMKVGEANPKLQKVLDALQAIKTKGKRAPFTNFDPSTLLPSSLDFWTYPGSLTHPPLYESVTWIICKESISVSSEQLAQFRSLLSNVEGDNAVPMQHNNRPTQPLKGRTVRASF

SMILES | Kd [1] [nM] | Ki [2] [µM] | EC50 [3] [nM] | Kd ([3]; Kd (µM), from DSF, h-CA I, 57 °C, 2 µM protein, no denaturant) [µM]
OC[C@H]1O[C@H](O[C@H]2[C@H](O)[C@@H](O)C(O)O[C@@H]2CO)[C@H](O)[C@@H](O)[C@@H]1O (mixture of isomers) [maltose] | 500 to 2000 |  |  | 
NS(=O)(=O)C(F)(F)F [TFMSA, trifluoromethanesulfonamide] |  | < 1 | 1400 | < 0.5
